Test results from US20070190004A1, “Substances with a probiotic action used in deodorants” (priority 2004, published 2007).

Experiments:
[1] = tested on: Staphylococcus epidermidis; experiment: Growth of S. epidermidis in LB liquid culture with test substance, OD (600 nm) versus control; type: cell-based; conditions: for Growth effect, promoting or inhibiting factor compared to the control: S. epidermidis
Method: (§1) From liquid precultures of S. epidermidis and S. hominis, cultures in LB medium with an optical density OD (600 nm) of 0.05 were inoculated. In parallel to the controls (without the addition of cells or extract), in each case 2 cultures were treated with 1% plant extract and the growth was documented over 30 h by reference to the OD measurement. After 30 h, the difference in the OD of the cultures with extract additive to the corresponding controls (without extract additive, corrected by the value without cells) was determined.
(§2) From liquid precultures of S. epidermidis and S. hominis, cultures in LB medium with an optical density OD (600 nm) of 0.05 were inoculated. In parallel to the controls (without the addition of cells or extract), in each case 2 cultures were treated with 1% plant extract and the growth was documented over 30 h by reference to the OD measurement. After 30 h, the difference in the OD of the cultures with extract additive to the corresponding controls (without extract additive, corrected by the value without cells) was determined. Various hibiscus extracts from Cosmetochem were used, namely “herbasol extract unpreserved carcade in 80% PG,” “carcade (hibiscus) herbasec” and “carcade (hibiscus) herbasol extract oil-soluble.”
as §1, with “myristate),” for “extract),”, “myristate derivative” for “plant extract”, “8” for “30”, “myristate” for “extract”
(§3) From liquid precultures of S. epidermidis and S. hominis, cultures in LB medium with an optical density OD (600 nm) of 0.05 were inoculated. In parallel to the controls [without the addition of cells or ethylhexyl glycerol (Sensiva SC 50, Schülke&Mayr)], in each case 2 cultures were treated with 0.1% ethylhexyl glycerol and the growth was documented over 24 h by reference to the OD measurement. After 4 h, 8 h and 24 h, the difference in the OD of the cultures with ethylhexyl glycerol to the corresponding controls (without extract additive, corrected by the value without cells) was determined.

[2] = tested on: Staphylococcus hominis; experiment: Growth of S. hominis in LB liquid culture with test substance, OD (600 nm) versus control; type: cell-based; conditions: for Growth effect, promoting or inhibiting factor compared to the control: S. hominis
Method: as §1, §2
as §1, with “myristate),” for “extract),”, “myristate derivative” for “plant extract”, “8” for “30”, “myristate” for “extract”
as §3

[3] = 1% myristate derivative, after 8 h, LB medium, OD 600 nm

Structure (SMILES) | Effect on growth of S. epidermidis (in words) ([1]; 1% myristate derivative, 8 h) | Growth effect, promoting or inhibiting factor compared to the control [1, 3] | Effect on growth of S. hominis (in words) ([2]; 1% myristate derivative, 8 h) | Growth effect, promoting or inhibiting factor compared to the control [2, 3] | Growth effect, promoting or inhibiting factor compared to the control ([1]; 0.1% ethylhexyl glycerol, 4 h) | Growth effect, promoting or inhibiting factor compared to the control ([1]; 0.1% ethylhexyl glycerol, 8 h) | Growth effect, promoting or inhibiting factor compared to the control ([1]; 0.1% ethylhexyl glycerol, 24 h) | Effect on growth of S. hominis (in words) ([2]; 0.1% ethylhexyl glycerol, up to 24 h) | Growth effect, promoting or inhibiting factor compared to the control ([2]; 0.1% ethylhexyl glycerol, 4 h) | Growth effect, promoting or inhibiting factor compared to the control ([2]; 0.1% ethylhexyl glycerol, 8 h) | Growth effect, promoting or inhibiting factor compared to the control ([2]; 0.1% ethylhexyl glycerol, 24 h)
CCCCCCCCCCCCCC(=O)OCC [Ethyl myristate, ethyl myristate] | moderate promotion of S. epidermidis | 1.44 | inhibiting action on S. hominis | 0.22 | – | – | – | – | – | – | –
CCCCCCCCCCCCCC(=O)OC(C)C [Isopropyl myristate, isopropyl myristate] | moderate promotion of S. epidermidis | 1.24 | inhibiting action on S. hominis | 0.50 | – | – | – | – | – | – | –
CCCCC(CC)COCC(O)CO (stereo not drawn) [ethylhexyl glycerol, 1-(2-Ethylhexyl) glycerol ether] | – | – | – | – | 1.06 | 1.06 | 1.10 | inhibits S. hominis | 0.87 | 0.92 | 0.76
